Counter-ions that a name gives are not always drawn. Like-named read-outs stand apart in the source and are kept apart here. Blank lines part the entries; values can stand above or below the molecule they belong to.
Assays:
[1] = set-up: species or system male Sprague Dawley rats; settings: rat, in vivo
Procedure: Cystamine dihydrochloride and cysteamine hydrochloride were administered to rats 1) orally on an empty stomach; 2) orally on full stomach; and 3) intra-cecum to evaluate the pharmacokinetics of cystamine and to compare it to cysteamine pharmacokinetics. Oral administration (PO) simulated immediate-release (IR) formulations. Intra-cecum (IC) administration simulated large intestine release (LIR) formulations, which provides a time to Cmax of more than 4 hours after administration.
Animal studies were performed by Absorption Systems. Test articles: Cysteamine hydrochloride (CH), 98%; Cystamine dihydrochloride (HCCH), 95-96% (both obtained from Sigma Aldrich). CH has one cysteamine base, while HCCH, upon disulfide bond reduction, yields two cysteamine molecules. CH and HCCH were administered at a dose selected to deliver 30 mg/kg of cysteamine base (44.2 mg/kg and 43.8 mg/kg respectively), so that each rat received same number of cysteamine molecules. Test articles (dry powder) were dissolved in 3 mL for PO and in 0.5 mL for IC of room temperature water no more than 15 minutes before dosing.
Five (5) male Sprague Dawley rats ˜300-350 gram (Envigo) were used per group, with 6 groups total.
All animals were healthy at the start of the trial and assigned randomly to the study groups by weight. Fed state animals had food and water supplied ad libitum. Fasted state animals had food removed at least 12 hours prior to dosing and food was returned 4 hours post dosing; water was supplied ad libitum. Oral gavage needle and syringe were used for oral administration. For IC dose administration, the animals were anesthetized with isoflurane regulated at ˜1-3% in oxygen. The abdominal cavity was surgically opened and the proximal large intestine was exposed. A test article was administered directly into the proximal large intestine with a 1 cc disposable syringe equipped with a 25 g hypodermic needle. The surgical site was then closed with staples or suture.
Blood was sampled from jugular vein at the following time points: pre-dose, 15, 30, 60, 120, 180, and 240 minutes post dose. Blood samples were collected into tubes containing TBD anticoagulant, then centrifuged at a temperature of 4° C., at 3,000×g, for 5 minutes. Once prepared, plasma samples were snap frozen. Plasma samples were stored at −80° C. until analysis.
Sample analysis was performed by Integrated Analytical Solutions. To measure plasma cysteamine, to 10 uL of a plasma sample or standard was added 10 uL of internal standard with reduction solution: 5 ug/mL d4-cysteamine (CDN Isotopes), 10 mM TCEP in water, prepared fresh, and mixed thoroughly. The mixture was incubated at 37° C. for 60 minutes, then 40 uL of 5% trichloroacetic acid was added and the solution was mixed thoroughly. Samples were then centrifuged at 6100 g for 30 minutes. Next, 20 uL of each supernatant were transferred to an autosampler plate and sealed with a cap mat. The concentration of cysteamine was measured by use of LC/MS/MS tandem mass spectroscopy. Column Atlantis T3 2.1×30mm, 3um was used at a room temperature; mobile phase A: 0.1% heptafluorobutyric acid in water; mobile phase B: 0.2% formic acid in acetonitrile; injection volume: 3 uL. (API 4000 LC/MS/MS; Applied Biosystems). The following MS parameters were used—HPLC system: Shimadzu VP Series 10 System; MS/MS: Applied Biosystems/MDS SCIEX API 4000; software: Analyst v1.6.3; isolation method: Electrospray, Positive Ion; source temperature: TurbolonSpray (ESI) at 400°. Cysteamine concentrations were calculated with a calibration curve that was prepared by spiking plasma with buffered cysteamine solutions, and quality control samples were analyzed with each batch.

[2] = tested on: cystinosis fibroblast cell culture; settings: compared with cysteamine (Thoene 1976); cited from earlier work

- Cmax of plasma cysteamine, IC compared to PO fasted [1]: higher
- Tmax (time to Cmax) of plasma cysteamine [1]: 15 min
- Tmax (time to Cmax) of plasma cysteamine ([1]; po): 15 min
Compound: NCCS [CH, Cysteamine hydrochloride, reference compound]

- AUC for dosing into the large intestine lower than AUC for oral dosing ([1]; male, Sprague Dawley, po): 25%
- Cmax for IC dosing lower than Cmax after oral administration ([1]; male, Sprague Dawley, po): more than 50%
- Absorption pattern after dosing to the large intestine [1]: not rapid, but rather sustained
- Cmax of plasma cysteamine compared to CH ([1]; po): higher Cmax
Compound: Cl.Cl.NCCSSCCN [HCCH, Cystamine dihydrochloride]

Compound: NCCSSCCN [Cystamine]
- Decrease of lysosomal cystine [2]: comparably to cysteamine
